Where no end group is shown, it is not given here.
Assays:
[1] = system: injected peptide-BSA; assay: Titer to the injected peptide in sera of immunised animals (peptide ELISA); format: in vivo, mouse; conditions: FIG. 11; Balb/c mice, 30 μg peptide, Alum as adjuvant; S3 = 2 weeks after 3rd injection; detection αIgG
Protocol: Balb/c mice/30 μg Peptide, 2 injections in 2 week intervals. S3=2 weeks after 3rd injection. Alum as adjuvant. […] Detection: αIgG:
(§1) Inhibiting as well as some non-inhibiting peptides were coupled to KLH and injected into mice (wildtype or CETP-transgenic mice; subcutaneously into the flank or intra-dermaly into the ears) or rabbits (subcutaneously into the flank) together with an appropriate adjuvant (aluminium hydroxide and Gerbu 100 for mice and aluminium hydroxide or CFA/IFA for rabbits).
(§2) Titers to injected peptides as well as to the original CETP epitope were determined. In addition, for selected sera also immune response to CETP protein was measured (Results see FIGS. 7a to 7d and FIGS. 19a to 19e).
Subcutaneous injections in the flank were performed in week 1, week 3 and week 7 with 30 μg peptide-KLH per mouse. Intradermal injections in the ear were performed in week 1, week 3 and week 6 with 10 μg peptide-KLH per mouse. Sera were taken 2 weeks after the 3rd injection. Vaccine formulation with Alum (always 1 mg per mouse): up to 250 μl, injected into one flank. The Alum formulation with 1 ml per mouse (500 μl into each flank) was in 1×PBS as buffer. […]

[2] = system: original epitope (p4073); assay: Titer to the original CETP epitope in sera of immunised animals (peptide ELISA); format: in vivo, mouse; conditions: FIG. 11; Balb/c mice, 30 μg peptide, Alum as adjuvant; S3; coating 1 μM p4073-BSA; detection αIgG
Protocol: (§3) Balb/c mice/30 μg Peptide, 2 injections in 2 week intervals. S3=2 weeks after 3rd injection. Alum as adjuvant. Titers against original epitope (p4073) induced by injection of mimotopes. Well coating: 50 μl of 1 μM p4073-BSA or 1 μg/ml activated KLH. Detection: αIgG:
as §1, §2
(§4) Subcutaneous injections in the flank were performed in week 1, week 3 and week 7 with 30 μg peptide-KLH per mouse. Intradermal injections in the ear were performed in week 1, week 3 and week 6 with 10 μg peptide-KLH per mouse. Sera were taken 2 weeks after the 3rd injection. Vaccine formulation with Alum (always 1 mg per mouse): up to 250 μl, injected into one flank. The Alum formulation with 1 ml per mouse (500 μl into each flank) was in 1×PBS as buffer.
Vaccine formulation with Gerbu Adjuvant 100 (Gerbu Cat. Nr. #3100; always 50 μl adjuvant per mouse): 200 μl, 100 μl injected into each flank comprising 1×HEPES as buffer. […]

[3] = system: irrelevant peptide-BSA; assay: Titer to irrelevant peptide in sera of immunised animals (peptide ELISA); format: in vivo, mouse; conditions: FIG. 11; Balb/c mice, 30 μg peptide, Alum as adjuvant; S3; detection αIgG
Protocol: as §3, §4
Vaccine formulation with Gerbu Adjuvant 100 (Gerbu Cat. Nr. #3100; always 50 μl adjuvant per mouse): 200 μl, 100 μl injected into each flank comprising 1×HEPES as buffer.
Female Balb/c mice, five mice per group, were subcutaneously immunized with 30 μg peptide coupled to KLH. Control groups were administered KLH or C-[…] (SEQ ID NO. 147). As adjuvant alum was used. […] The in vitro ELISA assay to determine the antibody titer was performed with pooled sera after two vaccinations in a two week interval (S2; see FIGS. 7a to 7d). The wells of the ELISA plate were coated with KLH (positive control), mimotope-BSA conjugate, C-[…] (SEQ ID NO. 147) and a irrelevant peptide-BSA conjugate (negative control). The detection was performed with anti-mouse IgG.

[4] = system: recombinant GST-CETP; assay: Anti-protein ELISA of sera of immunised mice, plates coated with recombinant GST-CETP; format: in vivo; conditions: sera of immunised mice
Text: (§5) FIGS. 12a and 12b show the in vivo induction of CETP specific antibodies by the administration of the mimotopes of the invention. Titers to p4073 and its correlation to titers to CETP of selected groups (which show high titers against p4073): gr.4, gr.9, gr.10, gr.14, gr.16-20/gr.1 (KLH), gr.2 (original epitope) as controls. Coating: recombinant GST-CETP or purified rabbit CETP, respectively:
(§6) Sera of each group (5 Balb/c mice each) were combined, diluted 1:100 and tested on ELISA plates coated with recombinant GST-CETP or rabbit CETP, respectively. Detection of bound antibodies was with algG.
as §2

[5] = system: rabbit CETP; assay: Anti-protein ELISA of sera of immunised mice, plates coated with purified rabbit CETP; format: in vivo, mouse; conditions: sera of immunised mice, purified rabbit CETP
Text: as §5, §6, §2

[6] = system: CETP; assay: CETP activity assay: human serum mixed with serum from vaccinated wild-type mice; format: biochemical; conditions: for inhibition of CETP activity in human serum (in words): FIGS. 15 to 17 and remarks in the example set-up table, sera of vaccinated mice; for CETP activity after addition of serum from vaccinated mice: FIG. 14, 0.6 μl human serum

Substance	titer, injected peptide-BSA [1]	titer, original epitope-BSA [2]	titer, irrelevant peptide-BSA [3]	ELISA signal, recombinant GST-CETP ([4]; FIG. 12b)	ELISA signal, rabbit CETP ([5]; FIG. 12b)	inhibition of CETP activity in human serum (in words) [6]	ELISA signal, recombinant GST-CETP ([4]; FIG. 12a)	ELISA signal, rabbit CETP ([5]; FIG. 12a)	CETP activity after addition of serum from vaccinated mice ([6]; 0.2 μl mouse serum)	CETP activity after addition of serum from vaccinated mice ([6]; 1.2 μl and 0.6 μl mouse serum)
p4343-KLH: C-FYFPAHVSIDWLQSLS coupled to KLH (CFYFPAHVSIDWLQSLS; also: coupled to KLH)	5.580	2.900	10	0.61	1.05	C-33: recogn. protein/not in-	–	–	–	–
p4361-KLH: C-FGFPAHVFIDWLQSLS coupled to KLH (CFGFPAHVFIDWLQSLS; also: coupled to KLH)	17.940	9.530	10	–	–	inhibits significantly CETP activity	1.64	1.51	reduces significantly said activity	completely inhibits CETP activity
